Test results reported in the Kinase Knowledgebase extract (Sharma et al. 2016).
≈ marks a conversion by molar mass, not a printed value. Where “and” joins values, the source holds several entries; their conditions need not be identical. Equal entries are not always repeated.

target: EGFR (UniProt P00533)
Sequence (P00533 whole entry, looked up): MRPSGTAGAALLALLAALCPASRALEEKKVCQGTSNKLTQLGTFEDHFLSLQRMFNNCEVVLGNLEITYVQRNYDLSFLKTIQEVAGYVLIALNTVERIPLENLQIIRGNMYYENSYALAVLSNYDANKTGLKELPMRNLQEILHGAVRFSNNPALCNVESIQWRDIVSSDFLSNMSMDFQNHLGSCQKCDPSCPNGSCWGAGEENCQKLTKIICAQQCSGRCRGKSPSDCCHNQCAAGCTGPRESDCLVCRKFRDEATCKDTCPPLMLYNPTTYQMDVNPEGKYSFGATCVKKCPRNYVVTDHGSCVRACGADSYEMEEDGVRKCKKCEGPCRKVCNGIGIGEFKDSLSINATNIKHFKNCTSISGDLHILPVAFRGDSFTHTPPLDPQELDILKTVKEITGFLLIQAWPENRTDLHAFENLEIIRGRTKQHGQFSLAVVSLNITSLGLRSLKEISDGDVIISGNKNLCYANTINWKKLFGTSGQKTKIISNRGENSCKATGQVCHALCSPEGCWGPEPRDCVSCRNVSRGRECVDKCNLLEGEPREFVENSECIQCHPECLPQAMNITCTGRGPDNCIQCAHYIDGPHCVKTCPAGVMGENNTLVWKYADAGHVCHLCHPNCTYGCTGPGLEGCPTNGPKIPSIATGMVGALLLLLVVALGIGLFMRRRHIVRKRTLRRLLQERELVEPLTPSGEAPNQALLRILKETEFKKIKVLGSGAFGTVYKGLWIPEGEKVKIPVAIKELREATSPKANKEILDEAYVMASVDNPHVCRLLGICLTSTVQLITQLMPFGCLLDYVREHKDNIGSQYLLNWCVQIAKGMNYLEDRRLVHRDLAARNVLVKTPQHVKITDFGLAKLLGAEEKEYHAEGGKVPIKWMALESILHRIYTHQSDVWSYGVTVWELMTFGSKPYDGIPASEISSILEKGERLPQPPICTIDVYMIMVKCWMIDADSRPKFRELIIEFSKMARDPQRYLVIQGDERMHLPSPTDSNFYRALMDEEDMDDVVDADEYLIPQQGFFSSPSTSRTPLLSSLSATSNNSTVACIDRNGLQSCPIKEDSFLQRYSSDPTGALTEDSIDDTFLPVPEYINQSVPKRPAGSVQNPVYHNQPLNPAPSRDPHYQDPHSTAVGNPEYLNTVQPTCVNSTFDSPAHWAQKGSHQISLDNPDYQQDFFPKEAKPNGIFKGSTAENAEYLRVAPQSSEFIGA

| SMILES | IC50 |
| --- | --- |
| CCN(CC)CCOc1cc(Nc2ncnc(Nc3cc(OC)c(OC)c(OC)c3)n2)ccc1OC | > 4.5 µg/mL |
| CCN(CC)CCCCNc1cc(-c2ncnc(Nc3cc(OC)c(OC)c(OC)c3)n2)ccn1 | > 4.5 µg/mL |
| Cc1cc(Br)ccc1Nc1ncnc(-n2cccc2)n1 | > 4.5 µg/mL |
| c1csc(-c2ncnc(Nc3ccc(N4CCOCC4)cc3)n2)c1 | > 4.5 µg/mL |
| O=C(O)/C=C/c1ccc(Nc2ncnc(Nc3cc(-c4ccco4)[nH]n3)n2)cc1 | < 0.4 µg/mL |
| CC(C)(C)OC(=O)Nc1ccc(Nc2ncnc(-c3ccccc3)n2)cc1 | > 4.5 µg/mL |
| OCc1cccc(Nc2ncnc(-c3cccnc3Nc3ccccc3)n2)c1 | 0.4 to 2.4 µg/mL (≈ 1.08 to 6.48 µM) |
| O=c1[nH]c2ccccc2n1-c1ncnc(Nc2ccc(Cl)cc2)n1 | > 4.5 µg/mL |
| COc1ccccc1Nc1ncnc(-n2cccc2)n1 | > 4.5 µg/mL |
| Cc1ccc2c(c1)CCCN2c1ncnc(NCCN2CCOCC2)n1 | > 4.5 µg/mL |
| COc1cccc(Nc2ncnc(-n3c(N)nc4ccccc43)n2)c1 | 2.4 to 3.5 µg/mL (≈ 7.2 to 10.5 µM) |
| COc1ccc(Nc2ncnc(NCc3ncc(C(F)(F)F)cc3Cl)n2)cc1OC | 2.4 to 3.5 µg/mL (≈ 5.44 to 7.94 µM) |
| COc1cc(Nc2ncnc(-n3c(N)nc4cc(Cl)ccc43)n2)cc(OC)c1OC.COc1cc(Nc2ncnc(-n3c(N)nc4ccc(Cl)cc43)n2)cc(OC)c1OC | > 4.5 µg/mL |
| CC(C)Nc1ncccc1-c1ncnc(Nc2cccc(Cn3ccnn3)c2)n1 | 2.4 to 3.5 µg/mL (≈ 6.19 to 9.03 µM) |
| COc1cc(Nc2ncnc(N(C)c3cccc(Cl)c3)n2)cc(OC)c1 | < 0.4 µg/mL |
| COc1ccc(Nc2ncnc(NCc3c(C)cccc3Cl)n2)cc1OC | > 4.5 µg/mL |
| FC(F)C(F)(F)Oc1cccc(Nc2ncnc(-c3cccs3)n2)c1 | > 4.5 µg/mL |
| CCOC(=O)c1cccc(Nc2ncnc(Nc3cc(-c4ccc(C(=O)OC)cc4)n[nH]3)n2)c1 | > 4.5 µg/mL |
| CCOc1ccc(Nc2ncnc(N(C)c3cccc(Cl)c3)n2)cc1OCC | < 0.4 µg/mL |

| SMILES | IC50 |
| --- | --- |
| CCOC(=O)C(Cc1cccc(Nc2ncnc(Nc3cc(-c4ccco4)n[nH]3)n2)c1)(NC(C)=O)C(=O)OCC | > 4.5 µg/mL |
| NC(=O)Cc1cccc(Nc2ncnc(Nc3cccc(Br)c3)n2)c1 | < 0.4 µg/mL |
| COc1cc(C)c(Nc2ncnc(Nc3cc(-c4ccc(C)cc4)n[nH]3)n2)cc1OC | > 4.5 µg/mL |
| CN(c1cccc(Cl)c1)c1ncnc(Nc2cc(C(C)(C)C)on2)n1 | > 4.5 µg/mL |
| COC(=O)c1cccc(Nc2ncnc(-n3c(NCc4ccccc4)nc4ccccc43)n2)c1 | 0.4 to 2.4 µg/mL (≈ 0.886 to 5.32 µM) |
| NCCCNc1ncnc(-c2ccccc2)n1 | > 4.5 µg/mL |
| c1cc(Cn2ccnn2)cc(Nc2ncnc(-n3c(Nc4ccc5[nH]ccc5c4)nc4ccccc43)n2)c1 | 2.4 to 3.5 µg/mL (≈ 4.8 to 7.01 µM) |
| COc1cc(C)c(Nc2ncnc(Nc3cc(-c4ccco4)n[nH]3)n2)cc1OC | 0.4 to 2.4 µg/mL (≈ 1.02 to 6.1 µM) |
| COC(=O)c1cccc(Nc2ncnc(-n3c(Cl)nc4ccccc43)n2)c1 | 2.4 to 3.5 µg/mL (≈ 6.3 to 9.19 µM) |
| NC(=O)c1ccc(Nc2ncnc(-n3c(N)nc4ccccc43)n2)cc1 | 2.4 to 3.5 µg/mL (≈ 6.93 to 10.1 µM) |
| CN(c1cccc(Cl)c1)c1ncnc(Nc2ccncc2)n1 | < 0.4 µg/mL |
| COC(=O)c1ccc(-c2cc(Nc3ncnc(Nc4cccc(CC(N)=O)c4)n3)[nH]n2)cc1 | 3.5 to 4.5 µg/mL (≈ 7.87 to 10.1 µM) |
| NC(=O)c1ccc(Nc2ncnc(-c3cccnc3NCc3ccccc3)n2)cc1 | 0.4 to 2.4 µg/mL (≈ 1.01 to 6.04 µM) |
| NC(=O)c1cccc(Nc2ncnc(-c3ccccc3)n2)c1 | > 4.5 µg/mL |
| NC(=O)c1ccccc1Nc1ncnc(-n2c(N)nc3ccccc32)n1 | > 4.5 µg/mL |
| CC1CCc2ccccc2N1c1ncnc(N2c3ccccc3CCC2C)n1 (stereo unspecified) | 2.4 to 3.5 µg/mL (≈ 6.46 to 9.42 µM) |
| COc1ccc(Nc2ncnc(Nc3ccc4c(c3)C(=O)OC4)n2)cc1OC | 2.4 to 3.5 µg/mL (≈ 6.33 to 9.23 µM) |
| Cc1nccc(-c2cccc(Nc3ncnc(Nc4ccc5c(cnn5Cc5ccccc5)c4)n3)c2)n1 | < 0.4 µg/mL |
| COc1cc(Nc2ncnc(-c3ccccc3)n2)cc(OC)c1 | > 4.5 µg/mL |

More lines, now with the values ahead:

| IC50 | SMILES |
| --- | --- |
| > 4.5 µg/mL | COc1cc(Nc2ncnc(Nc3[nH]ncc3-c3cccs3)n2)cc(OC)c1OC |
| > 4.5 µg/mL | CNc1ncnc(Nc2cc(OC)c(OC)c(OC)c2)n1 |
| > 4.5 µg/mL | COc1cc(C)c(Nc2ncnc(-n3c(N)nc4ccccc43)n2)cc1OC |
| > 4.5 µg/mL | COc1cc(Nc2ncnc(-n3c(OCc4ccccn4)nc4ccccc43)n2)cc(OC)c1OC |
| 0.4 to 2.4 µg/mL (≈ 1.01 to 6.04 µM) | COc1cc(Nc2ncnc(N[C@H](CO)c3ccccc3)n2)cc(OC)c1OC |
| 3.5 to 4.5 µg/mL (≈ 7.89 to 10.1 µM) | COc1cc(Nc2ncnc(Nc3cc(OC)c(OC)c(OC)c3)n2)cc(OC)c1OC |
| > 4.5 µg/mL | COc1cc(Nc2ncnc(-n3c(NCc4ncccc4C)nc4ccccc43)n2)cc(OC)c1OC |
| > 4.5 µg/mL | COc1cc(Nc2ncnc(-n3cc(C#N)c4ccccc43)n2)cc(OC)c1OC |
| > 4.5 µg/mL | COc1cc(Nc2ncnc(-c3ccc(N4CCOCC4)nc3)n2)cc(OC)c1OC |
| 0.4 to 2.4 µg/mL (≈ 0.89 to 5.34 µM) | COc1ccc(-c2cc(Nc3ncnc(Nc4cc(OC)c(OC)c(OC)c4)n3)[nH]n2)cc1 |
| > 4.5 µg/mL | COc1cc(Nc2ncnc(Nc3ccc(NC(=O)OC(C)(C)C)cc3)n2)cc(OC)c1OC |
| > 4.5 µg/mL | COc1cc(Nc2ncnc(-c3cccnc3Nc3cc(Cl)cc(Cl)c3)n2)cc(OC)c1OC |
| < 0.4 µg/mL | COc1cc(Nc2ncnc(Nc3cccc4ccccc34)n2)cc(OC)c1OCCN1CCOCC1 |
| > 4.5 µg/mL | COc1cc(Nc2ncnc(Nc3cc(-c4ccc(C(=O)NCCc5ccccc5)cc4)n[nH]3)n2)cc(OC)c1OC |
| > 4.5 µg/mL | COc1cc(Nc2ncnc(-n3c(Nc4ccc(C)cc4)nc4ccccc43)n2)cc(OC)c1OC |
| > 4.5 µg/mL | COc1cc(Nc2ncnc(-n3ccc4ccc(F)cc43)n2)cc(OC)c1OC |
| > 4.5 µg/mL | COc1cc(Nc2ncnc(-n3c(N)nc4ccccc43)n2)cc(OC)c1OCCN1CCOCC1 |
| 0.4 to 2.4 µg/mL (≈ 0.925 to 5.55 µM) | COc1cc(Nc2ncnc(Nc3ccc(Br)cc3)n2)cc(OC)c1OC |
| > 4.5 µg/mL | COc1cc(Nc2ncnc(-c3cccnc3Nc3cccc(C(F)(F)F)c3)n2)cc(OC)c1OC |

| IC50 | SMILES |
| --- | --- |
| > 4.5 µg/mL | COc1cc(Nc2ncnc(Nc3nc4ccccc4s3)n2)cc(OC)c1OC |
| > 4.5 µg/mL | COc1cc(Nc2ncnc(-c3cccnc3NC(C)C)n2)cc(OC)c1OC |
| 3.5 to 4.5 µg/mL and > 4.5 µg/mL | COc1cc(Nc2ncnc(Nc3cc(C)nn3C)n2)cc(OC)c1OC |
| 3.5 to 4.5 µg/mL (≈ 6.52 to 8.39 µM) | COc1cc(Nc2ncnc(-c3cccnc3Nc3cccc(OCc4ccccc4)c3)n2)cc(OC)c1OC |
| 3.5 to 4.5 µg/mL (≈ 8.07 to 10.4 µM) | COc1cc(Nc2ncnc(Nc3cc(-c4ccccc4)nn3C)n2)cc(OC)c1OC |
| > 4.5 µg/mL | COc1ccc2c(c1)c(CCN(C)C)cn2-c1ncnc(Nc2cc(OC)c(OC)c(OC)c2)n1 |
| > 4.5 µg/mL | COc1cc(Nc2ncnc(-n3ccc4c(OC)cccc43)n2)cc(OC)c1OC |
| > 4.5 µg/mL | COc1cc(Nc2ncnc(N3CCc4cc([N+](=O)[O-])ccc43)n2)cc(OC)c1OC |
| > 4.5 µg/mL | COc1cc(Nc2ncnc(NN3CCCC3)n2)cc(OC)c1OC |
| 0.4 to 2.4 µg/mL (≈ 1.01 to 6.07 µM) | COc1cc(Nc2ncnc(-n3c(=O)oc4ccccc43)n2)cc(OC)c1OC |
| < 0.4 µg/mL | CCN(c1ccc(C)cc1)c1ncnc(Nc2cc(OC)c(OC)c(OC)c2)n1 |
| > 4.5 µg/mL | COc1cc(Nc2ncnc(N3CCN(C)CC3)n2)cc(OC)c1OC |
| > 4.5 µg/mL | COc1cc(Nc2ncnc(-c3cccnc3NCCN3CCCCC3)n2)cc(OC)c1OC |
| > 4.5 µg/mL | COc1cc(Nc2ncnc(-c3cccnc3NCc3cccc4ccccc34)n2)cc(OC)c1OC |
| < 0.4 µg/mL | COc1cc(Nc2ncnc(N3CCCc4ccccc43)n2)cc(OC)c1OC |
| > 4.5 µg/mL | COc1cc(Nc2ncnc(-n3c(Nc4ccccc4C(C)C)nc4ccccc43)n2)cc(OC)c1OC |
| < 0.4 µg/mL | COc1cc(Nc2ncnc(Nc3ccc(C)cc3)n2)cc(OC)c1OC |
| > 4.5 µg/mL | COc1cc(Nc2ncnc(-n3c(Nc4ccccc4C(N)=O)nc4ccccc43)n2)cc(OC)c1OC |
| > 4.5 µg/mL | COc1cc(Nc2ncnc(-n3c(Nc4cccc(C(N)=O)c4)nc4ccccc43)n2)cc(OC)c1OC |
